According to US5149707A, “1-((2-fluorophenyl)(4-fluorophenyl)phenylmethyl)-1H-imidazole useful as antifungal agent” (J. Uriach & Cia, S.A., priority 1988, dated 1992):

How the values were obtained:
C. krusei = assay: MIC distribution, serial dilutions in Sabouraud gentamycin broth, microplates; assay type: cell-based; conditions: # of strains = 5
Protocol: (§1) The antifungal activity of 1-[(2-fluorophenyl)(4-fluorophenyl)phenylmethyl]-1H-imidazole and bifonazole was determined by serial dilutions in Sabouraud gentamycin broth using microplates. The antifungal agent was diluted in 50% ethanol to obtain concentrations between 40 and 0.015 mcg/ml. Inoculum was 10^7 cfu/ml for yeast and 10^6 cfu/ml for dermatophytes. Incubation was allowed at 37° C. during 2 days for yeasts, and at 29° C. during 7 days for dermatophytes. MIC's were determined as in example 18. The MIC distributions obtained in 9 organisms are shown in the next tables.

C. parapsilosis = assay: as above; assay type: cell-based; conditions: # of strains 10 = UR-4056/14 = Bifonazole
Protocol: as §1

M. canis = assay: as above; assay type: cell-based; conditions: # of strains = 13
Protocol: as §1

T. mentagrohytes = assay: as above; assay type: cell-based; conditions: # of strains = 17
Protocol: as §1

C. tropicalis = assay: as above; assay type: cell-based; conditions: # of strains = 30
Protocol: as §1

T. glabrata = assay: as above; assay type: cell-based; conditions: # of strains = 10 = UR-4056/15 Bifonzaole
Protocol: as §1

C. albicans = assay: as above; assay type: cell-based; conditions: # of strains = 50
Protocol: as §1

C. guilliermondii = assay: as above; assay type: cell-based; conditions: # of strains = 5
Protocol: as §1

[1] = system: yeast and filamentous fungi; assay: Comparative antifungal tests of Examples 18 to 20; assay type: cell-based
Protocol: The antifungal activity of 1-[(2-fluorophenyl)(4-fluorophenyl)phenylmethyl]-1H-imidazole was shown by its ability to inhibit the growth of different species of yeast and filamentous fungi in vitro. The activity was recorded as the MIC value, that is, the minimum amount of product needed to achieve the complete inhibition of the in vitro growth of the test organism. Testing was performed as follows: a solution of the antifungal agent in ethanol was diluted with DST agar (pH 6.5) or Emmon's Sabouraud dextrose agar to obtain concentrations between 10 and 0.01 mcg/ml, or 80 and 0.16 mcg/m, respectively. The inoculum was standarized in order 1×10^5 cfu/ml, and 10 mcl of each organism was seeded into the agar surface. […] Following incubation, the zones of inhibition were measured and compared to an inoculated, drug-free control to yield the MIC value.
The growth inhibition percentage of 5 different isolates on shake cultures was determined 24 h and 48 h after incubation at 28° C. […] The growth inhibition percentage was determined by spectrophotometry (450 nm). […]
The antifungal activity of 1-[(2-fluorophenyl)(4-fluorophenyl)phenylmethyl]-1H-imidazole and bifonazole was determined by serial dilutions in Sabouraud gentamycin broth using microplates. […] MIC's were determined as in example 18. […]

fungi (some species) = assay: Preliminary tests of antifungal activity; assay type: cell-based
mice = conditions: mouse, in vivo
Tolerance (DL50) in mice = conditions: mouse, in vivo
[2] = Liposolubility (log P octanol-water); assay type: physicochemical
Pharmacokinetics = conditions: in words

## Fc1ccc(C(c2ccccc2)(c2ccccc2F)n2ccnc2)cc1 (stereo not drawn) [UR-4056, 1-[(2-fluorophenyl) (4-fluorophenyl)phenylmethyl]-1H-imidazole]
C. krusei; MIC 0.3
  MIC Distribution (number of strains): 1 # of strains
C. krusei; MIC 2.5
  MIC Distribution (number of strains): 2 # of strains
C. krusei; MIC column 1.2
  MIC Distribution (number of strains): 1 # of strains
C. krusei; MIC column 40 (first)
  MIC Distribution (number of strains): 1 # of strains
C. parapsilosis; MIC 0.038
  MIC Distribution (number of strains): 2 # of strains
C. parapsilosis; MIC 0.15
  MIC Distribution (number of strains): 1 # of strains
C. parapsilosis; MIC 0.3
  MIC Distribution (number of strains): 2 # of strains
C. parapsilosis; MIC 0.6
  MIC Distribution (number of strains): 2 # of strains
C. parapsilosis; MIC column 1.2
  MIC Distribution (number of strains): 1 # of strains
C. parapsilosis; MIC column 10
  MIC Distribution (number of strains): 2 # of strains
M. canis; MIC 0.3
  MIC Distribution (number of strains): 4 # of strains
M. canis; MIC 2.5
  MIC Distribution (number of strains): 4 # of strains
M. canis; MIC column 1.2
  MIC Distribution (number of strains): 5 # of strains
T. mentagrohytes; MIC 0.15
  MIC Distribution (number of strains): 1 # of strains
T. mentagrohytes; MIC 0.3
  MIC Distribution (number of strains): 2 # of strains
T. mentagrohytes; MIC 0.6
  MIC Distribution (number of strains): 11 # of strains
T. mentagrohytes; MIC column 1.2
  MIC Distribution (number of strains): 3 # of strains
C. tropicalis; MIC 0.6
  MIC Distribution (number of strains): 1 # of strains
C. tropicalis; MIC 2.5
  MIC Distribution (number of strains): 4 # of strains
C. tropicalis; MIC 5.0
  MIC Distribution (number of strains): 13 # of strains
C. tropicalis; MIC column 0.078
  MIC Distribution (number of strains): 1 # of strains
C. tropicalis; MIC column 1.2
  MIC Distribution (number of strains): 3 # of strains
C. tropicalis; MIC column 10
  MIC Distribution (number of strains): 8 # of strains
T. glabrata; MIC 0.6
  MIC Distribution (number of strains): 1 # of strains
T. glabrata; MIC 2.5
  MIC Distribution (number of strains): 1 # of strains
T. glabrata; MIC 5.0
  MIC Distribution (number of strains): 2 # of strains
T. glabrata; MIC column 10
  MIC Distribution (number of strains): 4 # of strains
T. glabrata; MIC column 20
  MIC Distribution (number of strains): 1 # of strains
T. glabrata; MIC column 40 (first)
  MIC Distribution (number of strains): 1 # of strains
C. albicans; MIC 0.3
  MIC Distribution (number of strains): 1 # of strains
C. albicans; MIC 2.5
  MIC Distribution (number of strains): 11 # of strains
C. albicans; MIC 5.0
  MIC Distribution (number of strains): 31 # of strains
C. albicans; MIC column 1.2
  MIC Distribution (number of strains): 2 # of strains
C. albicans; MIC column 10
  MIC Distribution (number of strains): 5 # of strains
C. guilliermondii; MIC 0.3
  MIC Distribution (number of strains): 1 # of strains
C. guilliermondii; MIC 0.6
  MIC Distribution (number of strains): 2 # of strains
C. guilliermondii; MIC column 1.2
  MIC Distribution (number of strains): 2 # of strains
[1]
  potency compared with bifonazole: more potent than bifonazole in many instances
Fungi (some species)
  antifungal activity: very good activity against some species
mice
  tolerance: good tolerance
Tolerance (DL50) in mice
  LD50: 691 mg/kg
[2]; in words
  liposolubility: good liposolubility
[2]; octanol-water
  logP: 3.09
Pharmacokinetics
  pharmacokinetics: appropiate pharmacokinetics

## c1ccc(-c2ccc(C(c3ccccc3)n3ccnc3)cc2)cc1 (stereo not drawn) [Bifonazole, 1-[(4-biphenyl)-phenylmethyl]-1H-imidazole, reference compound]
C. krusei; MIC 2.5
  MIC Distribution (number of strains): 1 # of strains
C. krusei; MIC column 10
  MIC Distribution (number of strains): 1 # of strains
C. krusei; MIC column 40 (first)
  MIC Distribution (number of strains): 3 # of strains
C. parapsilosis; MIC 0.6
  MIC Distribution (number of strains): 1 # of strains
C. parapsilosis; MIC 5.0
  MIC Distribution (number of strains): 1 # of strains
C. parapsilosis; MIC column 10
  MIC Distribution (number of strains): 2 # of strains
C. parapsilosis; MIC column 40 (first)
  MIC Distribution (number of strains): 10 # of strains
M. canis; MIC 0.038
  MIC Distribution (number of strains): 1 # of strains
M. canis; MIC 2.5
  MIC Distribution (number of strains): 4 # of strains
M. canis; MIC 5.0
  MIC Distribution (number of strains): 5 # of strains
M. canis; MIC column 0.078
  MIC Distribution (number of strains): 1 # of strains
M. canis; MIC column 1.2
  MIC Distribution (number of strains): 2 # of strains
T. mentagrohytes; MIC 0.038
  MIC Distribution (number of strains): 1 # of strains
T. mentagrohytes; MIC 0.6
  MIC Distribution (number of strains): 1 # of strains
T. mentagrohytes; MIC 2.5
  MIC Distribution (number of strains): 5 # of strains
T. mentagrohytes; MIC column 1.2
  MIC Distribution (number of strains): 10 # of strains
C. tropicalis; MIC 5.0
  MIC Distribution (number of strains): 2 # of strains
C. tropicalis; MIC column 10
  MIC Distribution (number of strains): 1 # of strains
C. tropicalis; MIC column 40 (first)
  MIC Distribution (number of strains): 27 # of strains
T. glabrata; MIC 0.15
  MIC Distribution (number of strains): 1 # of strains
T. glabrata; MIC 0.6
  MIC Distribution (number of strains): 1 # of strains
T. glabrata; MIC 2.5
  MIC Distribution (number of strains): 3 # of strains
T. glabrata; MIC 5.0
  MIC Distribution (number of strains): 5 # of strains
T. glabrata; MIC column 10
  MIC Distribution (number of strains): 3 # of strains
T. glabrata; MIC column 40 (first)
  MIC Distribution (number of strains): 2 # of strains
C. albicans; MIC 2.5
  MIC Distribution (number of strains): 6 # of strains
C. albicans; MIC 5.0
  MIC Distribution (number of strains): 28 # of strains
C. albicans; MIC column 10
  MIC Distribution (number of strains): 11 # of strains
C. albicans; MIC column 20
  MIC Distribution (number of strains): 1 # of strains
C. albicans; MIC column 40 (first)
  MIC Distribution (number of strains): 4 # of strains
C. guilliermondii; MIC column 40 (first)
  MIC Distribution (number of strains): 5 # of strains
